The results in this text go back to patent US20220409576A1, “NANO-PARTICULATE COMPOSITIONS FOR STIMULATING HOST INNATE IMMUNE RESPONSES FOR THERAPEUTIC APPLICATIONS” (priority 2019, published 2022).

SMILES strings stand for the structures.

The test system of one assay is RAW 264.7 cells. The assay is described as follows: Intracellular hydroxyl radical generation in RAW 264.7 cells. In kind it is cell-based. To be noted: RAW 264.7 cells with IONPs 3 mg/mL + VC 500 μM, BIP 500 μM, 24 h, FIG. 3B. The procedure: A. The intracellular level of ferrous iron (Fe2+) in RAW 264.7 cells treated with IONPs (3 mg/mL) alone, IONPs with VC (500 μM), or IONPs with VC and BIP (iron chelator, 500 μM). B. The intracellular level of hydroxyl radical concentration in RAW 264.7 cells treated with IONPs (3 mg/mL) alone, IONPs with VC (500 μM), or in combination with BIP (500 μM) for 24 h. C. The bactericidal activity of RAW 264.7 cells treated with IONPs (3 mg/mL) with VC (500 μM), IONPs with VC and BIP (500 μM), or IONPs with VC and TIH (200 mM), assessed by antibiotic protection assay. *p<0.05, N=3-5 per group.
To further determine if the VC-mediated ROS generation and bactericidal activity were associated with a Fenton reaction due to increased release of Fe^2+, the levels of Fe^2+ were compared between RAW 264.7 cells treated with IONPs alone and IONPs with VC. […] Among various forms of ROS, hydroxyl radical ([…]) is highly cytotoxic by causing oxidative damage to DNA and cell membrane. In the Fenton reaction-mediated generation of ROS, the oxidation of Fe^2+ by hydrogen peroxide (H2O2) produces highly reactive hydroxyl radical.

Another assay deals with intracellular S. aureus. The assay can be described thus: Bactericidal activity of RAW 264.7 macrophages against intracellular S. aureus (antibiotic protection assay, viable colony number). In kind it is cell-based, Staphylococcus aureus. As to conditions: cells with IONPs 3 mg/mL + VC 500 μM plus chelator BIP 500 μM or scavenger THI 200 mM, FIG. 3C. On the procedure:
A. The quantification of ROS generation in the RAW 264.7 cells treated with varying concentration of IONPs (0-3 mg/mL). B. The colony number of viable bacteria (S. aureus) in the lysed RAW 264.7 macrophages treated with varying concentration of IONPs (0-3 mg/mL) following the exposure of live S. aureus.
(A-B) The quantification of ROS generation (A) and viable colony number of S. aureus (B) in the RAW 264.7 cells treated with VC (500 μM) alone, IONP (3 mg/mL) alone, or IONP (3 mg/mL)+VC (500 μM). (C-D) The quantification of ROS generation (C) and viable colony number of S. aureus (D) in the RAW 264.7 cells treated with IONP (3 mg/mL) alone, or IONP (3 mg/mL)+H2O2 (100 μM). E. Representative images of surviving S. aureus colony on agar plates from lysed RAW264.7 macrophages treated with H2O2 (100 μM), IONP (3 mg/mL), or IONP+H2O2. N=3-5 per group, *p<0.05
A. The intracellular level of ferrous iron (Fe2+) in RAW 264.7 cells treated with IONPs (3 mg/mL) alone, IONPs with VC (500 μM), or IONPs with VC and BIP (iron chelator, 500 μM). […] The bactericidal activity of RAW 264.7 cells treated with IONPs (3 mg/mL) with VC (500 μM), IONPs with VC and BIP (500 μM), or IONPs with VC and TIH (200 mM), assessed by antibiotic protection assay. *p<0.05, N=3-5 per group. […]

Regarding `c1ccc(-c2ccccn2)nc1` [BIP], the “IONPs and VC-induced generation of hydroxyl radicals” value with RAW 264.7 cells was “significantly decreased”. Also, the “IONPs/VC-induced bactericidal activity of RAW 264.7 cells” value in the assay on intracellular S. aureus was “decrease in bactericidal activity”.
